Like-named read-outs stand apart in the source and are kept apart here.
Assays:
[1] = test system: Kleb. pneumoniae ATCC 10031; assay: Antimicrobial activity, agar dilution; type: cell-based, Klebsiella pneumoniae; conditions: Agar Dextrose dilutions, 37°C, 20 heures
Excerpt: (§1) L'activité pharmacologique antimicrobienne de ces composés a été étudiée selon les références exposées ci-dessous.
(§2) Activité pharmacologique antimicrobienne : G.L. Daquet et Y.A. Chabbect, techniques en bactériologie, Vol. 3, Flammarion Médecine-Sciences, Paris 1972, et W.B. Hugo et A.D. Rusell, Pharmaceutical Microbiology, Blackwell Scientific Publications, London, 1977.
(§3) Milieu de culture et solvant : Agar d'antibiotiques n° 1 (Oxoid CM 327) Bouillon de triptone-soja (Oxoid CM 129) Solution Physiologique Ringer 1/4 (Oxoid BR 52) Agar Dextrose (BBL 11165)
(§4) Microorganismes : "Bacillus subtilis" ATCC 6633 "Citrobacter freundii" ATCC 112606 "Enterobacter aerogenes" ATCC 15038 "Enterobacter cloacae" ATCC 23355 "Bacillus cereus" ATCC 1178 "Escherichia coli" ATCC 10799 "Escherichia coli" ATCC 23559 "Klebsiella pneumoniae" ATCC 10031 "Proteus vulgaris" ATCC 8427 "Morg. morganii" ATCC 8019 "Pseudomonas aeruginosa" ATCC 9721 "Pseudomonas aeruginosa" ATCC 10145 "Salmonella typhimurium" ATCC 14028 "Salmonella typhimurium" ATCC 6539 "Serratia marcescens" ATCC 13880 "Shigella flexnerii" ATCC 12022 "Staphylococcusepidermis" ATCC 155-1 "Staphylococcus aureus" ATCC 25178 "Streptococcus faecalis" ATCC 10541.
(§5) Chacun des microorganismes est ensemencé par strie dans des tubes d'Agar d'antibiotiques n° 1, et mis en incubation pendant 20 heures à 37°C. Ensuite, on prend une anse de culture, on ensemence dans un bouillon de Triptone-soja et on incube pendant 20 heures à 37°C. On dilue à 1/4 la culture obtenue avec une solution physiologique Ringer, de façon à obtenir une suspension normalisée de […] pour chaque organisme.
(§6) A partir d'une solution de 100 µg/ml, chaque produit est dilué dans l'Agar Dextrose (préalablement fondu et maintenu à 50°C) par dilutions successives de façon à obtenir les concentrations suivantes : 64-32-16-8-4-2-1-0,5-0,25-0,125 µg de dérivé/ml du milieu.
(§7) Postérieurement, chaque concentration de chaque produit est répartie dans des boîtes de Petri de 10 cm de diamètre, à raison de 10 ml de milieu par boîte et autant de boîtes que de microorganismes à tester.
(§8) Une fois le milieu refroidi, les boîtes sont ensemencées avec les inoculations à raison de 0,4 ml d'inoculation par boîte. On les étend avec une anse de Driglasky et on recueille le surnageant. Les boîtes ensemencées sont incubées à 37°C pendant 20 heures.
(§9) Les résultats obtenus sont décrits dans les tableaux suivants. Les concentrations sont données en µg/ml.

[2] = Solubility in water and at pH 7.4; type: physicochemical
Excerpt: Un grand nombre des composés de l'invention manifestent une augmentation de la solubilité dans l'eau ainsi que de la solubilité à pH 7,4 lorsqu'on compare avec les composés de référence. L'augmentation de solubilité au pH physiologique peut favoriser l'absorption du produit et la solubilité élevée dans l'eau permet l'administration du composé par voie parentérale.

[3] = test system: Strep. faecalis ATCC 10541; assay: Antimicrobial activity, agar dilution; type: cell-based, Streptococcus faecalis; conditions: Agar Dextrose dilutions, 37°C, 20 heures
Excerpt: as §1, §2, §3, §4, §5, §6, §7, §8, §9

Morg. morganii ATCC 8019 = assay: Antimicrobial activity, agar dilution; type: cell-based; conditions: Agar Dextrose dilutions, 37°C, 20 heures
Excerpt: as §1, §2, §3, §4, §5, §6, §7, §8, §9

[4] = test system: Bacillus subtilis ATCC 6633; assay: Antimicrobial activity, agar dilution; type: cell-based; conditions: ATCC6633, 20 h, Agar Dextrose dilutions, 37°C, 20 heures, read-out: Activité pharmacologique antimicrobienne (concentrations)
Excerpt: as §1, §2, §3, §4, §5, §6, §7, §8, §9

[5] = test system: Escherichia coli ATCC 10799; assay: Antimicrobial activity, agar dilution; type: cell-based; conditions: Agar Dextrose dilutions, 37°C, 20 heures; for MIC: Escherichia coli, ATCC10799, 20 h, read-out: Activité pharmacologique antimicrobienne (concentrations)
Excerpt: as §1, §2, §3, §4, §5, §6, §7, §8, §9

[6] = test system: Staph. epidermidis ATCC 155-1; assay: Antimicrobial activity, agar dilution; type: cell-based; conditions: Agar Dextrose dilutions, 37°C, 20 heures; for MIC: Staphylococcus epidermidis, ATCC155, 20 h, read-out: Activité pharmacologique antimicrobienne (concentrations)
Excerpt: as §1, §2, §3, §4, §5, §6, §7, §8, §9

[7] = test system: Ps. aeruginosa ATCC 10145; assay: Antimicrobial activity, agar dilution; type: cell-based; conditions: Pseudomonas aeruginosa, ATCC10145, 20 h, Agar Dextrose dilutions, 37°C, 20 heures, read-out: Activité pharmacologique antimicrobienne (concentrations)
Excerpt: as §1, §2, §3, §4, §5, §6, §7, §8, §9

[8] = test system: Proteus vulgaris ATCC 8427; assay: Antimicrobial activity, agar dilution; type: cell-based; conditions: Agar Dextrose dilutions, 37°C, 20 heures; for MIC: Proteus vulgaris, ATCC8427, 20 h, read-out: Activité pharmacologique antimicrobienne (concentrations)
Excerpt: as §1, §2, §3, §4, §5, §6, §7, §8, §9

[9] = test system: Shigella flexnerii ATCC 12022; assay: Antimicrobial activity, agar dilution; type: cell-based; conditions: ATCC12022, 20 h, Agar Dextrose dilutions, 37°C, 20 heures, read-out: Activité pharmacologique antimicrobienne (concentrations)
Excerpt: as §1, §2, §3, §4, §5, §6, §7, §8, §9

[10] = test system: Escherichia coli ATCC 23559; assay: Antimicrobial activity, agar dilution; type: cell-based; conditions: Agar Dextrose dilutions, 37°C, 20 heures
Excerpt: as §1, §2, §3, §4, §5, §6, §7, §8, §9

Ps. aeruginosa ATCC 9721 = assay: Antimicrobial activity, agar dilution; type: cell-based; conditions: Pseudomonas aeruginosa, ATCC9721, 20 h, Agar Dextrose dilutions, 37°C, 20 heures, read-out: Activité pharmacologique antimicrobienne (concentrations)
Excerpt: as §1, §2, §3, §4, §5, §6, §7, §8, §9

[11] = test system: Bacillus cereus ATCC 11778; assay: Antimicrobial activity, agar dilution; type: cell-based; conditions: Agar Dextrose dilutions, 37°C, 20 heures; for MIC: Bacillus cereus, ATCC11778, 20 h, read-out: Activité pharmacologique antimicrobienne (concentrations)
Excerpt: as §1, §2, §3, §4, §5, §6, §7, §8, §9

Sal. typhi ATCC 6539 = assay: Antimicrobial activity, agar dilution; type: cell-based; conditions: Salmonella enterica, 20 h, read-out: Activité pharmacologique antimicrobienne (concentrations)
Excerpt: as §1, §2, §3, §4, §5, §6, §7, §8, §9

[12] = test system: Citr. freundii ATCC 11606; assay: Antimicrobial activity, agar dilution; type: cell-based, Citrobacter freundii; conditions: Agar Dextrose dilutions, 37°C, 20 heures; for MIC: Citrobacter freundii, ATCC11606, 20 h, read-out: Activité pharmacologique antimicrobienne (concentrations)
Excerpt: as §1, §2, §3, §4, §5, §6, §7, §8, §9

[13] = test system: Serr. marcescens ATCC 13880; assay: Antimicrobial activity, agar dilution; type: cell-based, Serratia marcescens; conditions: Agar Dextrose dilutions, 37°C, 20 heures
Excerpt: as §1, §2, §3, §4, §5, §6, §7, §8, §9

Ent. cloacae ATCC 23355 = assay: Antimicrobial activity, agar dilution; type: cell-based, Enterobacter cloacae; conditions: Agar Dextrose dilutions, 37°C, 20 heures
Excerpt: as §1, §2, §3, §4, §5, §6, §7, §8, §9

Staph. aureus ATCC 25178 = assay: Antimicrobial activity, agar dilution; type: cell-based, Staphylococcus aureus; conditions: Agar Dextrose dilutions, 37°C, 20 heures; for MIC: Staphylococcus aureus, ATCC25178, 20 h, read-out: Activité pharmacologique antimicrobienne (concentrations)
Excerpt: as §1, §2, §3, §4, §5, §6, §7, §8, §9

[14] = test system: Ent. aerogenes ATCC 15038; assay: Antimicrobial activity, agar dilution; type: cell-based, Enterobacter aerogenes; conditions: Klebsiella aerogenes, ATCC15038, 20 h, Agar Dextrose dilutions, 37°C, 20 heures, read-out: Activité pharmacologique antimicrobienne (concentrations)
Excerpt: as §1, §2, §3, §4, §5, §6, §7, §8, §9

[15] = test system: Sal. typhimurium ATCC 14028; assay: Antimicrobial activity, agar dilution; type: cell-based, Salmonella typhimurium; conditions: Agar Dextrose dilutions, 37°C, 20 heures; for MIC: Salmonella enterica, 20 h, read-out: Activité pharmacologique antimicrobienne (concentrations)
Excerpt: as §1, §2, §3, §4, §5, §6, §7, §8, §9

For `C[C@H](N)C(=O)N[C@@H]1CN(c2nc3c(cc2F)c(=O)c(C(=O)O)cn3C2CC2)[C@H]1C` [Exemple 4aA, chlorhydratede l'acide 7-[(2S,3R)-2-méthyl-3-Ala-amino-1-azétidinyl]-1-cyclopropyl-6-fluoro-1,4-dihydro-4-oxo-1,8-naphtyridine-3-carboxylique], the “Activité pharmacologique antimicrobienne (concentrations)” value [1] was 0,06 µg/ml, the “Activité pharmacologique antimicrobienne (concentrations)” value ([1]; listed as 4aa) was 0,5 µg/ml and the solubility ([2]; pH 7,4, read-out: Solubilité pH 7,4) was greater than 500 µg/mL. The solubility ([2]; water, read-out: Solubilité dans l'eau) was greater than 500 µg/mL, the “Activité pharmacologique antimicrobienne (concentrations)” value [3] was 8 µg/ml and the “Activité pharmacologique antimicrobienne (concentrations)” value ([3]; listed as 4aa) was 1 µg/ml. For the same molecule, the “Activité pharmacologique antimicrobienne (concentrations)” value (Morg. morganii ATCC 8019) was 0,5 µg/ml, the “Activité pharmacologique antimicrobienne (concentrations)” value (Morg. morganii ATCC 8019; listed as 4aa) was 2 µg/ml and the MIC [4] was 0.12 µg/mL. The “Activité pharmacologique antimicrobienne (concentrations)” value [5] was 1 µg/ml, the MIC [5] was 0.5 µg/mL and the “Activité pharmacologique antimicrobienne (concentrations)” value [6] was 1 µg/ml. The MIC [6] was 0.5 µg/mL, the MIC [7] was 8 µg/mL and the “Activité pharmacologique antimicrobienne (concentrations)” value [8] was 2 µg/ml. The MIC [8] was 1 µg/mL, the MIC [9] was 0.12 µg/mL and the “Activité pharmacologique antimicrobienne (concentrations)” value [10] was 0,12 µg/ml. The “Activité pharmacologique antimicrobienne (concentrations)” value ([10]; listed as 4aa) was 0,25 µg/ml, the MIC (Ps. aeruginosa ATCC 9721) was 4 µg/mL and the “Activité pharmacologique antimicrobienne (concentrations)” value [11] was 0,5 µg/ml. For the same molecule, the MIC [11] was 1 µg/mL, the MIC (Sal. typhi ATCC 6539) was 0.5 µg/mL and the “Activité pharmacologique antimicrobienne (concentrations)” value [12] was 0,5 µg/ml. For the same molecule, the MIC [12] was 0.25 µg/mL, the “Activité pharmacologique antimicrobienne (concentrations)” value [13] was 1 µg/ml and the “Activité pharmacologique antimicrobienne (concentrations)” value ([13]; listed as 4aa) was 4 µg/ml. The “Activité pharmacologique antimicrobienne (concentrations)” value (Ent. cloacae ATCC 23355) was 0,12 µg/ml, the “Activité pharmacologique antimicrobienne (concentrations)” value (Ent. cloacae ATCC 23355; listed as 4aa) was 0,25 µg/ml and the “Activité pharmacologique antimicrobienne (concentrations)” value (Staph. aureus ATCC 25178) was 0,25 µg/ml. The MIC (Staph. aureus ATCC 25178) was 0.5 µg/mL, the MIC [14] was 0.5 µg/mL and the “Activité pharmacologique antimicrobienne (concentrations)” value [15] was 1 µg/ml. The MIC [15] was 0.5 µg/mL.

For `CC(C)C[C@H](N)C(=O)N[C@@H]1CN(c2nc3c(cc2F)c(=O)c(C(=O)O)cn3C2CC2)[C@H]1C` [Exemple 4aL, chlorhydratede l'acide 7-[(2S,3R)-2-méthyl-3-Leu-amino-1-azétidinyl]-1-cyclopropyl-6-fluoro-1,4-dihydro-4-oxo-1,8-naphtyridine-3-carboxylique], the MIC ([1]; Klebsiella pneumoniae, ATCC10031, 20 h, read-out: Activité pharmacologique antimicrobienne (concentrations)) was 0.06 µg/mL, the solubility ([2]; pH 7) was greater than 500 µg/mL and the solubility ([2]; water) was greater than 500 µg/mL. For the same molecule, the MIC ([3]; Enterococcus faecalis, ATCC10541, 20 h, read-out: Activité pharmacologique antimicrobienne (concentrations)) was 2 µg/mL, the MIC (Morg. morganii ATCC 8019; Morganella morganii, ATCC8019, 20 h, read-out: Activité pharmacologique antimicrobienne (concentrations)) was 0.25 µg/mL and the MIC [4] was 0.12 µg/mL. It also gave an MIC [5] of 0.12 µg/mL, an MIC [6] of 0.25 µg/mL and an MIC [7] of 8 µg/mL. It also gave an MIC [8] of 0.25 µg/mL, an MIC [9] of 0.06 µg/mL and an MIC ([10]; Escherichia coli, ATCC23559, 20 h, read-out: Activité pharmacologique antimicrobienne (concentrations)) of 0.06 µg/mL. It also gave an MIC (Ps. aeruginosa ATCC 9721) of 2 µg/mL, an MIC [11] of 0.12 µg/mL and an MIC (Sal. typhi ATCC 6539) of 0.12 µg/mL. It also gave an MIC [12] of 0.12 µg/mL, an MIC ([13]; Serratia marcescens, ATCC13880, 20 h, read-out: Activité pharmacologique antimicrobienne (concentrations)) of 0.25 µg/mL and an MIC (Ent. cloacae ATCC 23355; Enterobacter cloacae, ATCC23355, 20 h, read-out: Activité pharmacologique antimicrobienne (concentrations)) of 0.12 µg/mL. For the same molecule, the MIC (Staph. aureus ATCC 25178) was 0.25 µg/mL, the MIC [14] was 0.12 µg/mL and the MIC [15] was 0.12 µg/mL.
